# Data from patent publication US11198850B2, “Method for manufacturing telencephalon or progenitor tissue thereof” (RIKEN, priority 2013, dated 2021).
# Experiments:
# [1] = system: Human ES cells (KhES-1) aggregates; assay: Cortical hem formation in human ES cell aggregates with Wnt signal enhancer, immunohistostaining on day 42; type: cell-based; settings: 3 μM CHIR99021 alone, day 18 to day 42
# Method: Human ES cells (KhES-1; a fluorescence protein gene Venus is knocked-in a telencephalon specific gene Foxg1) were dispersed to single cells by a trypsin treatment, and according to the SFEBq method (Nakano et al, Cell Stem Cell, 2012), aggregates were formed and subjected to suspension aggregate culture at 37° C. in the presence of 5% CO2 for differentiation induction. The dispersed 9000 human ES cells were seeded in each well of a V bottom 96 well plate applied with a low cell adsorptive surface coating, and a growth factor-free G-MEM medium (Gibco/Invitrogen) added with 20% KSR (Knockout Serum Replacement), 0.1 mM non-essential amino acid solution (Gibco/Invitrogen), 1 mM sodium pyruvate solution (Sigma), and 0.1 mM 2-mercaptoethanol was used as the medium for differentiation induction. […] The aggregate was analyzed on day 1 and day 34 from the start of differentiation induction, and analyzed by immunohistostaining on day 42. […] The culture medium used for the culture from day 18 to day 42 was DMEM/F12 medium (Gibco/Invitrogen) added with 1% N2 supplement (Gibco/Invitrogen), 1% lipid concentrate (Chemically defined lipid concentrate, Gibco/Invitrogen), 10% FBS, 5 μg/ml heparin, 3 μM GSK-3β inhibitor CHIR99021 (Wnt signal enhancer) and the aggregates were analyzed by immunohistostaining on day 42.
# [2] = system: hESC-derived cortical neuroepithelium; assay: Notch signal inhibition in hESC-derived cortical neuroepithelium, neural stem cell/progenitor and neuron markers; type: cell-based, human; settings: 10 μM DAPT, days 70-77
# Description: (A-C) Immunostaining of Pax6 and Sox2 in apical and basal (SVZ) neural stem cells/progenitors within the hESC-derived cortical neuroepithelium on day 91. The majority of Sox2 positive cells express Pax6 (C). (D-F) Effects of Notch signal inhibition on the expression of neural stem cells/progenitor and neuron markers in cortical neuroepithelium. […] An increase of cortical neuroepithelium thickness also observed after the treatment (F). ***P<0.001, Student t tests between with DAPT (n=6) and without DAPT (n=5) treatment. (G) Schematic of oRG neural stem cells/progenitors in the human fetal outer SVZ. (H and H′) Phospho-vimentin+ neural stem cells/progenitors in the SVZ expressed Sox2. (I) Phospho-vimentin+ neural stem cells/progenitors in the SVZ with a long […] process extending toward the pial surface. (J) Phospho-vimentin+ SVZ neural stem cells/progenitors with a basal process carried a pericentin+ centrosome in the neurons. During mitosis, two pericentin+ centrioles were found for dividing cells. […] (Scale bars, 100 μm in A-E; 25 μm in H-K.)
# Cortical neuroepithelium induced from hESCs were subjected to culture under the following conditions. On day 18, the cell aggregates were transferred to a 9-cm Petri dish (non-cell adhesive surface coat) and further cultured in DMEM/F12 medium (Gibco/Invitrogen) supplemented with 1% N2 supplement (Gibco/Invitrogen), 1% lipid concentrate (Chemically Defined Lipid Concentrate, Gibco/Invitrogen), 0.25 mg/mL Fungizone, 100 U/mL penicillin, and 100 μg/mL streptomycin at 37° C. in the presence of 5% CO2 and 40% O2. From day 35, 10% FBS, 5 μg/mL heparin, and 1% Matrigel growth factor-reduced (BD Biosciences) were also added to the medium. To prevent cell death in the central portions of cell aggregates, the aggregates were cut into half-size with fine forceps under a dissecting microscope every 2 wk after day 35 and were cultured using a lumox culture dish (SARSTEDT; O2 penetrating) after day 56. From day 70, the concentration of Matrigel was increased (final 2%) and B27 supplement (Gibco/Invitrogen) was added to the medium.
# [3] = system: Human ES cells (KhES-1) aggregates; assay: Induction of basal ganglia progenitor tissue (LGE/MGE) in human ES cell aggregates by Shh signal agonist, immunohistostaining on day 35; type: cell-based
# Method: Human ES cells (KhES-1; a fluorescence protein gene Venus is knocked-in a telencephalon specific gene Foxg1) were dispersed to single cells by a trypsin treatment, and according to the SFEBq method (Nakano et al, Cell Stem Cell, 2012), aggregates were formed and subjected to suspension aggregate culture at 37° C. in the presence of 5% CO2 for differentiation induction. The dispersed 9000 human ES cells were seeded in each well of a V bottom 96 well plate applied with a low cell adsorptive surface coating, and a growth factor-free G-MEM medium (Gibco/Invitrogen) added with 20% KSR (Knockout Serum Replacement), 0.1 mM non-essential amino acid solution (Gibco/Invitrogen), 1 mM sodium pyruvate solution (Sigma), and 0.1 mM 2-mercaptoethanol was used as the medium for differentiation induction. To suppress dispersion-induced cell death, 20 μM of a ROCK inhibitor Y-27632 was added for the first 3 days of differentiation induction, and the concentration thereof was reduced to half for the next 3 days. From day 0 to day 18 after the start of the differentiation induction, Wnt signal inhibitor IWR-1-end (3 μM) and TGFβ signal inhibitor SB431542 (5 μM) were added and allowed to react. On day 18 from the start of differentiation induction, these aggregates were transferred to a 9 cm petri dish applied with low cell-adhesive surface coating, and suspension culture was performed at 37° C., in the presence of 5% CO2, 40% O2. From day 18 to day 35, DMEM/F12 medium (Gibco/Invitrogen) added with 1% N2 supplement (Gibco/Invitrogen), and 1% lipid concentrate (Chemically defined lipid concentrate, Gibco/Invitrogen) was used. From day 35, the medium further added with 10% FBS, 5 μg/ml heparin, and 1% Matrigel growth factor reduced (BD Bioscience) was used. The aggregate was analyzed on day 1 and day 34 from the start of differentiation induction, and analyzed by immunohistostaining on day 42.
# Up to day 35 of differentiation induction, cells were cultured under culture conditions similar to those of Example 1. That is, human ES cell aggregates were cultured in a V bottom 96 well plate up to 18 days after differentiation induction, suspended aggregates were transferred to a non-cell adhesive petri dish (diameter […]), and suspension culture was performed at 37° C. in the presence of 5% CO2, 40% O2 from day 18 to day 35 of differentiation induction. However, Sonic hedgehog (Shh) signal agonist SAG was added to the culture medium of Example 1 at a final concentration of 30 nM or 500 nM only in the period of from day 15 to day 21 and allowed to react. The aggregate was analyzed by immunohistostaining on day 35.
# Up to day 35 of differentiation induction, cells were cultured under culture conditions similar to those of Example 2. That is, human ES cell aggregates were cultured in a V bottom 96 well plate up to 18 days after differentiation induction, suspended aggregates were transferred to a non-cell adhesive petri dish (diameter 9 cm), and suspension culture was performed at 37° C. in the presence of 5% CO2, 40% O2, from day 18 to day 35 of differentiation induction. However, Shh signal agonist SAG was added to the culture medium at a concentration of 30 nM only in the period of from day 15 to day 21 of differentiation induction. The aggregate was analyzed by immunohistostaining on day 35.
# Ventralization of cortical neuroepithelium was performed by adding hedgehog agonist SAG (30 nM or 500 nM) during culture days 15-21. The cell aggregates were fixed on culture day 35.
# [4] = system: hESC-derived cortical neuroepithelium; assay: Rolling morphogenesis of hESC-derived cortical neuroepithelium with ROCK inhibitor; type: cell-based, human; settings: P<0.001 vs control, Fisher's exact test, dihydrochloride
# Description: (A-I) Asymmetric progression of rounding morphogenesis of hESC-derived cortical neuroepithelium. Arrows indicate boundary of a cortical neuroepithelium domain in A and rolling epithelium in B-D. Arrowheads indicate rolling epithelium in E. Arrows indicate rounding movements of the neuroepithelium in F-I. (J-L) Effect of the ROCK inhibitor Y-27632 on the rolling of cortical neuroepithelium. […] Treatment group, n=187 neuroepithelium domains; control group, n=130. (M and N) The rolling shape was preferentially observed on the side with strong expression of Otx2 and Coup-TF1 (dorsal and caudal markers). (O-Q) Adjacent formation of neuroepithelium structures of cortex (Pax6+) and LGE (Gsh2+; with GAD65^+ GABAergic neurons underneath) on day 35. The cortical side contacting the LGE domain was opposite to the side with strong rolling (arrow). (R) Interkinetic nuclear migration in the hESC-derived cortical neuroepithelium on day 24 (two-photon imaging). Visualized with partial mixing of pax6::venus reporter hESCs with nonlabeled hESCs. Two daughter cells with both apical and basal processes were generated from an apically dividing progenitor. (Scale bars, 200 μm in A; 100 μm in B-H and J-N; 200 μm in O-Q.) Nuclear counter staining (blue), DAPI.
# [5] = 30 nM SAG, day 15 to day 21, analysed day 35
smiles,measurement,setting,value
"Cc1cnc(-c2cnc(NCCNc3ccc(C#N)cn3)nc2-c2ccc(Cl)cc2Cl)[nH]1 [CHIR99021, 6-[[2-[[4-(2,4-Dichlorophenyl)-5-(5-methyl-1H-imidazol-2-yl)-2-pyrimidinyl]amino]ethyl]amino]-3-pyridinecarbonitrile]",aggregates with selective formation of cortical hem,[1],not less than 80%
C[C@H](NC(=O)Cc1cc(F)cc(F)c1)C(=O)N[C@H](C(=O)OC(C)(C)C)c1ccccc1 [DAPT],Satb2+ neurons,[2],increased
same,Sox2+ Tbr2− cells after the treatment,[2],rarely remained
same,Sox2− Tbr2+ intermediate neural stem cells/progenitors,[2],increased
same,cortical neuroepithelium thickness,[2]; P<0.001,increase
CNC1CCC(N(Cc2cccc(-c3ccncc3)c2)C(=O)c2sc3ccccc3c2Cl)CC1 (stereo not shown) [SAG],Gsh2 (LGE marker) expression in foxg1::Venus-expressing neural epithelium,[3]; 30 nM SAG for days 15-21,a substantial portion of foxg1::Venus-expressing neural epithelium expressed Gsh2
same,aggregates with Gsh2 positive LGE neuroepithelium,[3]; [5],not less than 70%
same,aggregates with continuous self-formation of cerebral cortex and basal ganglion in one aggregate,[3]; [5],not less than 50%
same,percentage of Gsh2+ neuroepithelium in Foxg1+ telencephalic neuroepithelium,"[3]; 30 nM SAG, days 15-21",increased
same,percentage of Pax6+ neuroepithelium in Foxg1+ telencephalic neuroepithelium,"[3]; 30 nM SAG, days 15-21",partially suppressed
same,aggregates with Foxg1::venus positive and Nkx2.1 positive MGE neuroepithelium,"[3]; 500 nM SAG, day 15 to day 21, analysed day 35",not less than 80%
same,Nkx2.1+ neuroepithelium as share of Foxg1+ telencephalic NE,"[3]; 500 nM SAG, days 15-21",40-50%
same,expression of both Pax6 and Gsh2,"[3]; 500 nM SAG, days 15-21",efficiently suppressed
same,MGE marker Nkx2.1 expression,"[3]; high concentrations of SAG (500 nM), days 15-21",induced the MGE marker Nkx2.1 at the cost of Pax6 and Gsh2 expression
"C[C@@H](N)[C@H]1CC[C@H](C(=O)Nc2ccncc2)CC1.Cl.Cl [Y-27632, (+)-(R)-trans-4-(1-aminoethyl)-N-(4-pyridyl)cyclohexanecarboxamide dihydrochloride]",rolling morphogenesis of cortical neuroepithelium,[4],Attenuation of rolling morphogenesis
same,rolling morphogenesis of cortical neuroepithelium,[4]; listed as ROCK inhibitor,attenuated
